Publication PMC4177392, “Modulation of Cytochrome P450 Metabolism and Transport across Intestinal Epithelial Barrier by Ginger Biophenolics” (PLoS ONE, 2014)
Values after ≈ are worked out from the molar mass of the structure shown. Where two headings read alike, the source gives them in different places.

Key:
[1] = target: T1, CYP2C8 (Homo sapiens, UniProt P10632); test: CYP2C8 inhibition in human liver microsomes (substrate amodiaquine); format: in vitro ADME
T1 sequence (P10632 1-490): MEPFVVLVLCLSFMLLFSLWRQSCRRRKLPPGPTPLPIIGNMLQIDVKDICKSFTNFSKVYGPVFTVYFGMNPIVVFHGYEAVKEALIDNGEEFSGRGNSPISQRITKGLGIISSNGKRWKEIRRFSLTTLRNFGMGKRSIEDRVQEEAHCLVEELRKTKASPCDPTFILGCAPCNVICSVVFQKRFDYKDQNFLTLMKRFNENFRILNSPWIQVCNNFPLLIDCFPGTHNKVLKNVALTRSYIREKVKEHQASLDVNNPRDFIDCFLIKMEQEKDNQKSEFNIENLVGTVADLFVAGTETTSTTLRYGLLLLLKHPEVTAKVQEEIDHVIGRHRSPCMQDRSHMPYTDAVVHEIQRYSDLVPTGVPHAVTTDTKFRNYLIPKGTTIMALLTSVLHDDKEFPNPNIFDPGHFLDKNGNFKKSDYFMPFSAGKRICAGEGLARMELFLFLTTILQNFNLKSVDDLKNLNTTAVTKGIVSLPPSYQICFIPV
Protocol: (§1) The highest concentration of GE used in the assay was 500 µg/mL equivalent. Stock solution for each CYP specific probe substrate was prepared in such a way that the final concentration is below the reported Km value.
(§2) A microsome-buffer-substrate mixture (MBS mix) was prepared for each isozyme by pre-mixing appropriate volumes of sodium phosphate buffer (pH 7.4, 50 mM), microsomes and substrate (Table S2 in File S1). 179 µL of MBS mix was transferred to 96-well reaction plate to which 1 µL of inhibitor stock solution was added to achieve the final target inhibitor concentration. The reaction plate was pre-incubated for 10 min at 37°C followed by reaction initiation by addition of 20 µL of 10 mM NADPH solution. The reaction plate was then incubated at 37°C for a predetermined time period following which it was quenched with 200 µL ACN for all CYPs and 200 µL 1% formic acid in water∶ACN (70∶30) for CYP1A2. In all cases, the final incubations after addition of substrate and inhibitor contained 0.1% DMSO (v/v), and the total organic solvent (DMSO and ACN) content was less than or equal to 1% (v/v). […] The incubations were performed in singlet for individual gingerols and in duplicate for GE along with respective positive controls.

[2] = test system: Caco-2 monolayer; test: Caco-2 permeability assay; conditions: 10 µM; for Intracellular (cell) accumulation: direction not given; for Papp: n = 3, mean ± SD
[3] = target: CYP2D6 (Homo sapiens, UniProt P10635); test: CYP2D6 inhibition in human liver microsomes (substrate dextromethorphan); format: in vitro ADME
Protocol: as §1
A microsome-buffer-substrate mixture (MBS mix) was prepared for each isozyme by pre-mixing appropriate volumes of sodium phosphate buffer (pH 7.4, 50 mM), microsomes and substrate (Table S2 in File S1). 179 µL of MBS mix was transferred to 96-well reaction plate to which 1 µL of inhibitor stock solution was added to achieve the final target inhibitor concentration. The reaction plate was pre-incubated for 10 min at 37°C followed by reaction initiation by addition of 20 µL of 10 mM NADPH solution. The reaction plate was then incubated at 37°C for a predetermined time period following which it was quenched with 200 µL ACN for all CYPs and 200 µL 1% formic acid in water∶ACN (70∶30) for CYP1A2. In all cases, the final incubations after addition of substrate and inhibitor contained 0.1% DMSO (v/v), and the total organic solvent (DMSO and ACN) content was less than or equal to 1% (v/v). The details of final substrate concentration, incubation time, microsomal protein concentration in the reaction mixtures and the metabolites monitored for each isozyme tested are presented in Table S3 in File S1. The incubations were performed in singlet for individual gingerols and in duplicate for GE along with respective positive controls.
All samples were processed using protein precipitation method and analyzed by employing positive (for all CYPs) and negative (for CYP2A6, 2C19 and 2E1) ionization mode in liquid chromatography tandem mass spectrometry (API4000, Applied Biosystems, USA). The peak area ratio of analyte to IS was used for calculations. An isocratic method comprising 5 mM ammonium formate and ACN (40∶60) with 0.05% formic acid was used for elution. For CYP2C19, a mobile phase consisting of 5 mM ammonium formate and ACN (30∶70) was used. The analytes and internal standards were retained on BDS Hypersil Phenyl (150×4.6 mm, 5 µ, Thermo, USA) column. A flow rate of 0.5 mL/min (CYP1A2), 0.6 mL/min (CYP2C19, CYP2E1), 0.7 mL/min (CYP2C9), 0.8 mL/min (CYP2A6, CYP3A), 1.0 mL/min (CYP2B6, CYP2C8, CYP2D6) was maintained using Shimadzu Prominence solvent delivery system (LC-20AD). The mobile phase was degassed using degasser (DGU-20A3), samples were loaded into autosampler (SIL-HTc) and the column temperature was maintained at 40°C by column oven (CTO-20A). […]

[4] = target: T2, CYP1A2 (Homo sapiens, UniProt P05177); test: CYP1A2 inhibition in human liver microsomes (substrate phenacetin); format: in vitro ADME
T2 construct: […]; tissue XenoTechLLC H0610
T2 sequence (P05177 1-516): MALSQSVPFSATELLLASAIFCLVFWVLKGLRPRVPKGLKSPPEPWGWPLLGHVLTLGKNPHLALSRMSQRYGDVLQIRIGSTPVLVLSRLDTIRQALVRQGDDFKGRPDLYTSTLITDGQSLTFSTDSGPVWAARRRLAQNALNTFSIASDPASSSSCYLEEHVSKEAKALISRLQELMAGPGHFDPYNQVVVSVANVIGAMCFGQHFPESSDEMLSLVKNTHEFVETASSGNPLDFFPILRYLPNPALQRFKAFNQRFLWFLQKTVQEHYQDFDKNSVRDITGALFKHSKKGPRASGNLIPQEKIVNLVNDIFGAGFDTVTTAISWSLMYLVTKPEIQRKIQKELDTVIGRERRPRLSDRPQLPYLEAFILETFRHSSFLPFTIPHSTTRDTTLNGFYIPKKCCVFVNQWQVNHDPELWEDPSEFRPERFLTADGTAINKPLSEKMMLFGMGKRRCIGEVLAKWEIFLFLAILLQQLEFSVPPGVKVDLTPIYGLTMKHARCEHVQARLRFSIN
Protocol: as §1, §2

[5] = cited from earlier work
[6] = target: CYP2E1 (Homo sapiens, UniProt P05181); test: CYP2E1 inhibition in human liver microsomes (substrate chlorzoxazone)
Protocol: Stock solution for each CYP specific probe substrate was prepared in such a way that the final concentration is below the reported Km value.
A microsome-buffer-substrate mixture (MBS mix) was prepared for each isozyme by pre-mixing appropriate volumes of sodium phosphate buffer (pH 7.4, 50 mM), microsomes and substrate (Table S2 in File S1). 179 µL of MBS mix was transferred to 96-well reaction plate to which 1 µL of inhibitor stock solution was added to achieve the final target inhibitor concentration. The reaction plate was pre-incubated for 10 min at 37°C followed by reaction initiation by addition of 20 µL of 10 mM NADPH solution. The reaction plate was then incubated at 37°C for a predetermined time period following which it was quenched with 200 µL ACN for all CYPs and 200 µL 1% formic acid in water∶ACN (70∶30) for CYP1A2. In all cases, the final incubations after addition of substrate and inhibitor contained 0.1% DMSO (v/v), and the total organic solvent (DMSO and ACN) content was less than or equal to 1% (v/v). The details of final substrate concentration, incubation time, microsomal protein concentration in the reaction mixtures and the metabolites monitored for each isozyme tested are presented in Table S3 in File S1.
All samples were processed using protein precipitation method and analyzed by employing positive (for all CYPs) and negative (for CYP2A6, 2C19 and 2E1) ionization mode in liquid chromatography tandem mass spectrometry (API4000, Applied Biosystems, USA). The peak area ratio of analyte to IS was used for calculations. An isocratic method comprising 5 mM ammonium formate and ACN (40∶60) with 0.05% formic acid was used for elution. For CYP2C19, a mobile phase consisting of 5 mM ammonium formate and ACN (30∶70) was used. The analytes and internal standards were retained on BDS Hypersil Phenyl (150×4.6 mm, 5 µ, Thermo, USA) column. A flow rate of 0.5 mL/min (CYP1A2), 0.6 mL/min (CYP2C19, CYP2E1), 0.7 mL/min (CYP2C9), 0.8 mL/min (CYP2A6, CYP3A), 1.0 mL/min (CYP2B6, CYP2C8, CYP2D6) was maintained using Shimadzu Prominence solvent delivery system (LC-20AD). The mobile phase was degassed using degasser (DGU-20A3), samples were loaded into autosampler (SIL-HTc) and the column temperature was maintained at 40°C by column oven (CTO-20A). Injection volumes for the samples were as follows: 5 µL (CYP1A2, CYP2D6, and CYP3A), 10 µL (CYP2B6, CYP2C8, and CYP2E1) and 20 µL (CYP2A6, CYP2C9, and CYP2C19). Data was collected and processed using Sciex Analyst 1.4.2. All the structures of inhibitors, substrates, metabolites and internal standards for each CYP enzyme are represented in Table S6 in File S1.
The IC50 value was estimated from the percentage reduction in CYP activity at eleven inhibitor concentrations with respect to control.
The data was analysed using 4PL (parameter logistic model), 3PLFB (bottom fixed), 3PLFT (top fixed), 2PL (top and bottom fixed), and the relative IC50 was with lowest standard error was further manipulation. Absolute IC50 was calculated from this relative IC50 by using the equation below: [drawing 3]

[7] = target: CYP3A4 (Homo sapiens, UniProt P08684); test: CYP3A4 inhibition in human liver microsomes (substrate testosterone); format: in vitro ADME
Protocol: as §1, §2

[8] = human liver microsomes, substrate amodiaquine, gingerols and GE
[9] = human liver microsomes, substrate dextromethorphan, gingerols and GE
[10] = human liver microsomes, substrate phenacetin, gingerols and GE
[11] = humans, oral 2 g GE, as glucuronide and sulfate conjugates
[12] = human liver microsomes, substrate chlorzoxazone, gingerols and GE
[13] = human liver microsomes, substrate testosterone, gingerols and GE

Sequence of CYP2D6 (P10635 whole entry): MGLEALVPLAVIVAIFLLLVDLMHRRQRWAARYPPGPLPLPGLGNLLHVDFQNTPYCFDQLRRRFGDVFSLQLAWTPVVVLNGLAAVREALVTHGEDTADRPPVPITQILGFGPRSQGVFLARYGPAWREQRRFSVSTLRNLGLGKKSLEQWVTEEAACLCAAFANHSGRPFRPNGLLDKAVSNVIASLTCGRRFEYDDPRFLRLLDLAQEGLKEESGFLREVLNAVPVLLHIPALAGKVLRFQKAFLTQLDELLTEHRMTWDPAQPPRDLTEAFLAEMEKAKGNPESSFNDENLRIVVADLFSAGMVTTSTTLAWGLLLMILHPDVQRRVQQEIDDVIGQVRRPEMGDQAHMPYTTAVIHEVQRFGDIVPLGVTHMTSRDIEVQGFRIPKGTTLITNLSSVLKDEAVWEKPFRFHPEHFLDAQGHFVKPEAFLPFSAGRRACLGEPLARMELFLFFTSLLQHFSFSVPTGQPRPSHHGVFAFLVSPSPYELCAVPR
Sequence of CYP2E1 (P05181 whole entry): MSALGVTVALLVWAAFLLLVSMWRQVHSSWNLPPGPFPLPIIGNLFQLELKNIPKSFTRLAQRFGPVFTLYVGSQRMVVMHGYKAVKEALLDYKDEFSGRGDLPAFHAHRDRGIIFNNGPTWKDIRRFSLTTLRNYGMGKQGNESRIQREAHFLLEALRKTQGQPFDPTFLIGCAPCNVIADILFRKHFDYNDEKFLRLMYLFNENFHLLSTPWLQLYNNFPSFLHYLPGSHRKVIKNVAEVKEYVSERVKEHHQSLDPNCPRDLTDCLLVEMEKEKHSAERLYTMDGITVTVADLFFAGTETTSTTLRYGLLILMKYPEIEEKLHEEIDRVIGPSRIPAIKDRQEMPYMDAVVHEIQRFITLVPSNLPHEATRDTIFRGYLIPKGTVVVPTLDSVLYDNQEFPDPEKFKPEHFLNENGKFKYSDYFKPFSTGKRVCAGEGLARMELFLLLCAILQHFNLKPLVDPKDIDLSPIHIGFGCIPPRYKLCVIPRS
Sequence of CYP3A4 (P08684 2-503): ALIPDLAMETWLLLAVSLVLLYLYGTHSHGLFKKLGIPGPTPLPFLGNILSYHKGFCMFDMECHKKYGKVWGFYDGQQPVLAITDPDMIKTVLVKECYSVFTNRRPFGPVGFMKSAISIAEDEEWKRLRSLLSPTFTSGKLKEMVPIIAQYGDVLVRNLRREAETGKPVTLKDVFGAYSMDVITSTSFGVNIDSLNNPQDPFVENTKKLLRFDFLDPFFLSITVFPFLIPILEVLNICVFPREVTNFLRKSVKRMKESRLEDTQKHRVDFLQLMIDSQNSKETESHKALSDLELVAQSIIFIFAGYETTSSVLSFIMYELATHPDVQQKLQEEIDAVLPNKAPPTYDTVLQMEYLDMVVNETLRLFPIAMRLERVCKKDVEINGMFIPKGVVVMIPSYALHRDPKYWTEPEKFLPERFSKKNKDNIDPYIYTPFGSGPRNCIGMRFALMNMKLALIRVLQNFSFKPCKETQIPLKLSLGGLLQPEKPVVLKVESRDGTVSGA

Structure (SMILES) | Intracellular (cell) accumulation [2] | Intracellular accumulation ([2]; A→B) [%] | Intracellular accumulation ([2]; B→A) [%] | IC50 CYP2C8 [1, 8] [µg/mL] | Papp ([2]; A→B) [×10⁻⁶ cm/s] | Papp ([2]; B→A) [×10⁻⁶ cm/s] | IC50 CYP2D6 [3, 9] [µg/mL] | IC50 CYP1A2 [4, 10] [µg/mL] | Cmax / circulating concentration in humans [5, 11] [ng/mL] | IC50 CYP2E1 [6, 12] [µg/mL] | IC50 CYP3A4 (testosterone) [7, 13] [µg/mL] | Efflux Ratio [2] | also measured
CCCCC[C@H](O)CC(=O)CCc1ccc(O)c(OC)c1 [6G, 6-gingerol] | < 5% | 2 | 5 |  |  |  |  |  |  |  |  |  | IC50 ([1]; IC50 CYP2C8, human liver microsomes, substrate amodiaquine, gingerols and GE): 22.1 µM; IC50 ([3]; IC50 CYP2D6, human liver microsomes, substrate dextromethorphan, gingerols and GE): > 98.5 µM; IC50 [4]: 19 µM; Cmax / circulating concentration in humans ([5]; human, in vivo, po): 850 ± 430 ng/mL; IC50 [6]: > 98.5 µM; IC50 [7]: 37.4 µM
CCCCC/C=C/C(=O)CCc1ccc(O)c(OC)c1 [6S, 6-shogaol] | almost no accumulation | 0 | 1 | 0.8 (≈ 2.89 µM) | 0.071 ± 0.014 | 0.4 ± 0.2 | 24 (≈ 86.8 µM) | 0.7 (≈ 2.53 µM) | 150 ± 120 | 21 (≈ 76 µM) | 2.3 (≈ 8.32 µM) |  | 
CCCCCCC[C@H](O)CC(=O)CCc1ccc(O)c(OC)c1 [8G, 8-gingerol] | < 1% | 14 | 12 | 0.70 (≈ 2.17 µM) | 5.3 ± 0.8 | 6.9 ± 0.6 | 24 (≈ 74.4 µM) | 8.8 (≈ 27.3 µM) | 230 ± 160 | 30 (≈ 93 µM) | 2.6 (≈ 8.06 µM) | 1.3 | 
CCCCCCCCC[C@H](O)CC(=O)CCc1ccc(O)c(OC)c1 [10G, 10-gingerol] | 15% | 15 | 10 |  | 0.9 ± 0.7 | 1.7 ± 0.6 |  |  | 530 ± 400 |  |  | 1.8 | IC50 CYP2C8 ([1]; microsomes): 0.7 µg/mL (≈ 2 µM); IC50 CYP2D6 ([3]; microsomes): 19 µg/mL (≈ 54.2 µM); IC50 CYP1A2 ([4]; microsomes): > 35 µg/mL; IC50 CYP2E1 ([6]; microsomes): >35 µg/mL; IC50 CYP3A4 (testosterone) ([7]; microsomes): 2.5 µg/mL (≈ 7.13 µM)
